Assays:
[1] = Cell viability assay (MTT) on MCF-10A; format: cell-based; settings: human, MCF-10A mammary gland epithelial cells, MCF-10A cells, four days
Experimental: To assess the viability of compounds IV and Va–i, the human mammary gland epithelial (MCF-10A) cell line was exploited. Compounds IV and Va–i were cultured for four days on MCF-10A cells before being evaluated for vitality using the MTT assay.
To test the viability of the new compounds, the human mammary gland epithelial (MCF-10A) cell line was used. Compounds IV and Va–i were incubated on MCF-10A cells for four days before being tested for viability using the MTT assay. See Supplementary Materials.
4.2. Biological evaluation
4.2.1. Cytotoxic activity using MTT Assay and evaluation of IC50
MTT assay was performed to investigate the effect of the synthesized compounds on mammary epithelial cells (MCF-10A). The cells were propagated in medium consisting of Ham's F-12 medium/ Dulbecco's modified Eagle's medium (DMEM) (1:1) supplemented with 10% foetal calf serum, 2 mM glutamine, insulin (10 μg/mL), hydrocortisone (500 ng/mL) and epidermal growth factor (20 ng/mL). Trypsin ethylenediamine tetra acetic acid (EDTA) was used to passage the cells after every 2-3 days. 96-well flat-bottomed cell culture plates were used to seed the cells at a density of 10^4 cells mL-1. The medium was aspirated from all the wells of culture plates after 24 h followed by the addition of synthesized compounds (in 200 μL medium to yield a final concentration of 0.1% (v/v) dimethyl sulfoxide) into individual wells of the plates. Four wells were designated to a single compound. The plates were allowed to incubate at 37°C for 96 h. Afterwards, the medium was aspirated and 3-[4,5-dimethylthiazol-2-yl]-2,5-diphenyltetrazolium bromide (MTT) (0.4 mg/mL) in medium was added to each well and subsequently incubated for 3 h. The medium was aspirated and 150 μL dimethyl sulfoxide (DMSO) was added to each well. The plates were vortexed followed by the measurement of absorbance at 540 nm on a microplate reader. The results were presented as inhibition (%) of proliferation in contrast to controls comprising 0.1%

[2] = test system: human epithelial (A-549) cancer cell line; assay: Antiproliferative assay, A-549; format: cell-based; settings: A549, read-out: Antiproliferative Activity IC50 ± SEM, A-549
Experimental: (§1) 4.2.1.2. Assay for antiproliferative effect
(§2) To explore the antiproliferative potential of compounds propidium iodide fluorescence assay was performed using different cell lines such as Panc-1 (pancreas cancer cell line), MCF-7 (breast cancer cell line), HT-29 (colon cancer cell line) and A-549 (epithelial cancer cell line), respectively.
(§3) To calculate the total nuclear DNA, a fluorescent dye (propidium iodide, PI) is used which can attach to the DNA, thus offering a quick and precise technique. PI cannot pass through the cell membrane and its signal intensity can be considered as directly proportional to quantity of cellular
(§4) DNA. Cells whose cell membranes are damaged or have changed permeability are counted as dead ones. The assay was performed by seeding the cells of different cell lines at a density of 3000-7500 cells/well (in200μl medium) in culture plates followed by incubation for 24h at 37 °C in humidified 5%CO2/95% air atmospheric conditions. The medium was removed; the compounds were added to the plates at 10 μM concentrations (in 0.1% DMSO) in triplicates, followed by incubation for 48h. DMSO (0.1%) was used as control. After incubation, medium was removed followed by the addition of PI (25 μl, 50μg/mL in water/medium) to each well of the plates. At - 80 °C, the plates were allowed to freeze for 24 h, followed by thawing at 25 °C. A fluorometer (Polar-Star BMG Tech) was used to record the readings at excitation and emission wavelengths of 530 and 620 nm for each well. The percentage cytotoxicity of compounds was calculated using […]
(§5) Where ATC= Absorbance of treated cells and AC= Absorbance of control. Erlotinib was used as positive control in the assay.

[3] = test system: breast cancer (MCF-7) cell line; assay: Antiproliferative assay, MCF-7; format: cell-based; settings: Homo sapiens, MCF7; read-out: Antiproliferative Activity IC50 ± SEM, MCF-7
Experimental: as §1, §2, §3, §4, §5

[4] = test system: pancreatic cancer (Panc-1) cell line; assay: Antiproliferative assay, Panc-1; format: cell-based; settings: Homo sapiens, read-out: Antiproliferative Activity IC50 ± SEM, Panc-1
Experimental: as §1, §2, §3, §4, §5

[5] = test system: colon cancer (HT-29) cell line; assay: Antiproliferative assay, HT-29; format: cell-based; settings: Homo sapiens, read-out: Antiproliferative Activity IC50 ± SEM, HT-29
Experimental: as §1, §2, §3, §4, §5

[6] = test system: four human cancer cell lines (A-549, MCF-7, Panc-1, HT-29); assay: Antiproliferative assay, average over the four cancer cell lines (GI50); format: cell-based; settings: average of the four cancer cell lines
Experimental: See Supplementary Materials.
as §1
To explore the antiproliferative potential of compounds propidium iodide fluorescence assay was performed using different cell lines such as Panc-1 (pancreas cancer cell line), MCF-7 (breast […]
as §3
DNA. Cells whose cell membranes are damaged or have changed permeability are counted as dead ones. The assay was performed by seeding the cells of different cell lines at a density of 3000- […]
The medium was removed; the compounds were added to the plates at 10 μM concentrations (in 0.1% DMSO) in triplicates, followed by incubation for 48h. DMSO (0.1%) was used as control. After incubation, medium was removed followed by the addition of PI (25 μl, 50μg/mL in water/medium) to each well of the plates. At - 80 °C, the plates were allowed to freeze for 24 h, followed by thawing at 25 °C. A fluorometer (Polar-Star BMG Tech) was used to record the readings at excitation and emission wavelengths of 530 and 620 nm for each well. The percentage cytotoxicity of compounds was calculated using […]
Where ATC= Absorbance of treated cells and AC= Absorbance of control. […]
positive control in the assay.

SMILES | viability at 96 h, 50 µM [1] [%] | IC50 [2] [µM] | IC50 [3] [µM] | IC50 [4] [µM] | IC50 [5] [µM] | GI50 [6] [µM] | melting point [°C]
NCC(c1ccccc1)c1c(-c2ccccc2)[nH]c2ccccc12 (stereo not drawn) [Compound IV, 2-phenyl-2-(2-phenyl-1H-indol-3-yl)ethan-1-amine] | 92 | 0.102 ± 0.01 | 0.106 ± 0.01 | 0.104 ± 0.01 | 0.104 ± 0.01 | 0.104 | 167 to 169
CCc1c(C(=O)NCC(c2ccccc2)c2c(-c3ccccc3)[nH]c3ccccc23)[nH]c2ccc(Cl)cc12 (stereo not drawn) [Compound Vc, 5-Chloro-3-ethyl-N-(2-phenyl-2-(2-phenyl-1H-indol-3-yl)ethyl)-1H-indole-2-carboxamide] | 91 | 0.054 ± 0.005 | 0.057 ± 0.005 | 0.056 ± 0.005 | 0.055 ± 0.005 | 0.056 | 110 to 112
C#Cc1cccc(Nc2ncnc3cc(OCCOC)c(OCCOC)cc23)c1 [Erlotinib, reference compound] | – | 0.03 ± 0.003 | 0.04 ± 0.003 | 0.03 ± 0.003 | 0.03 ± 0.003 | – | –
Cc1c(C(=O)NCC(c2ccccc2)c2c(-c3ccccc3)[nH]c3ccccc23)[nH]c2ccc(Cl)cc12 (stereo not drawn) [Vb, 5-Chloro-3-methyl-N-(2-phenyl-2-(2-phenyl-1H-indol-3-yl)ethyl)-1H-indole-2-carboxamide] | 88 | 0.058 ± 0.005 | 0.061 ± 0.006 | 0.058 ± 0.005 | 0.059 ± 0.005 | 0.059 | 135 to 137
CCc1c(C(=O)NCC(c2ccccc2)c2c(-c3ccccc3)[nH]c3ccccc23)[nH]c2ccc(Br)cc12 (stereo not drawn) [Vd, 5-Bromo-3-ethyl-N-(2-phenyl-2-(2-phenyl-1H-indol-3-yl)ethyl)-1H-indole-2-carboxamide] | 89 | 0.064 ± 0.006 | 0.068 ± 0.006 | 0.066 ± 0.006 | 0.066 ± 0.006 | 0.066 | 130 to 132
CCc1c(C(=O)NCC(c2ccccc2)c2c(-c3ccccc3)[nH]c3ccccc23)oc2ccc(Cl)cc12 (stereo not drawn) [Vi, 5-Chloro-3-ethyl-N-(2-phenyl-2-(2-phenyl-1H-indol-3-yl)ethyl)benzofuran-2-carboxamide] | 89 | 0.086 ± 0.008 | 0.089 ± 0.008 | 0.085 ± 0.008 | 0.085 ± 0.008 | 0.086 | 225 to 227
